Measurements taken from patent publication US8569314B2, “Triazolo and tetrazolo pyrimidine derivatives as HNE inhibitors for treating COPD” (Bayer Intellectual Property GmbH, priority 2009, dated 2013).
Structures can show the parent of a compound that is named as a salt.

What was measured:
[1] = target: human neutrophil elastase (HNE) (Homo sapiens (Human), UniProt P08246); assay: In vitro HNE inhibition assay (fluorogenic peptide substrate MeOSuc-Ala-Ala-Pro-Val-AMC); assay type: biochemical; conditions: HNE concentration of 80 pM; 37° C., 2 hours
Sequence of human neutrophil elastase (HNE) (P08246 30-267): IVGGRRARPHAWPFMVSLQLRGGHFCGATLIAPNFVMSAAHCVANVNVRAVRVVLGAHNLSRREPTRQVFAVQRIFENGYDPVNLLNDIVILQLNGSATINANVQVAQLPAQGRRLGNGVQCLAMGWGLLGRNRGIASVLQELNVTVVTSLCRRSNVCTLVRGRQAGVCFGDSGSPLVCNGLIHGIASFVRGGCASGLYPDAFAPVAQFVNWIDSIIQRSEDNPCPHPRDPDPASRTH
Description: B-1. In Vitro HNE Inhibition Assay
The potency of the compounds of the invention is ascertained in an in vitro inhibition assay. The HNE-mediated amidolytic cleavage of a suitable peptide substrate leads in this connection to an increase in the fluorescent light. The signal intensity of the fluorescent light is directly proportional to the enzyme activity. The effective concentration of a test compound at which half the enzyme is inhibited (50% signal intensity of the fluorescent light) is indicated as IC50.
Enzyme (80 pM HNE; from Serva, Heidelberg) and substrate (20 μM MeOSuc-Ala-Ala-Pro-Val-AMC; from Bachem, Weil am Rhein) are incubated in an assay volume of in total 50 μl of assay buffer (0.1 M HEPES pH 7.4, 0.5 M NaCl, 0.1% w/v BSA, 1% v/v DMSO) in a 384-well microtiter plate in the presence and absence of the test substance at 37° C. for 2 hours. The intensity of the fluorescent light from the assay mixtures is measured (Ex. 380 nm, Em. 460 nm). The IC50 values are determined by plotting the intensity of the fluorescent light against the active substance concentration.

pancreas elastase = pancreas elastase (Sus scrofa (Pig), UniProt P00772); conditions: cited from earlier work
Sequence of pancreas elastase (P00772 27-266): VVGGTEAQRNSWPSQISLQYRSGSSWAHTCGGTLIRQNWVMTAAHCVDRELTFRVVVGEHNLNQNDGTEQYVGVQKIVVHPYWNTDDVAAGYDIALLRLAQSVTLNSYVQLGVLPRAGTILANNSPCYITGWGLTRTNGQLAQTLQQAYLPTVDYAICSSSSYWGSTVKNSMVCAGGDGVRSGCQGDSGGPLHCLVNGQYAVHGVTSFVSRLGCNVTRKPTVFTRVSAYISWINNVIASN

SMILES | IC50 [1] | IC50 (pancreas elastase)
CC1=C(C#N)C(c2ccc(C#N)cc2)n2nc(C(C)C)nc2N1c1cccc(C(F)(F)F)c1 (racemic) [Example 67, (rac)-7-(4-Cyanophenyl)-5-methyl-2-(1-methylethyl)-4-[3-(trifluoromethyl)phenyl]-4,7-dihydro-[1,2,4]triazolo[1,5-a]pyrimidine-6-carbonitrile] | 85 nM | –
CCOC(=O)C1=C(C)N(c2cccc(C(F)(F)F)c2)c2nc3cncnc3n2C1c1ccc(C#N)cc1 (racemic) [Example 78, Ethyl(rac)-9-(4-cyanophenyl)-7-methyl-6-[3-(trifluoromethyl)phenyl]-6,9-dihydropyrimido[1,2-e]-purin-8-carboxylate] | 3 nM | –
CC1=C(C#N)[C@@H](c2ccc(C#N)cc2S(C)(=O)=O)n2nc(NC(=O)C3CC3)nc2N1c1cccc(C(F)(F)F)c1 [Example 35, N-{(7S)-6-Cyano-7-[4-cyano-2-(methylsulfonyl)phenyl]-5-methyl-4-[3-(trifluoromethyl)phenyl]-4,7-dihydro[1,2,4]triazolo[1,5-a]pyrimidin-2-yl}cyclopropanecarboxamide] | < 0.3 nM | –
CC1=C(C#N)[C@@H](c2ccc(C#N)cc2)n2nc(NC(=O)NCCO)nc2N1c1cccc(C(F)(F)F)c1 [Example 53, 1-{(7R)-6-Cyano-7-(4-cyanophenyl)-5-methyl-4-[3-(trifluoromethyl)phenyl]-4,7-dihydro[1,2,4]triazolo[1,5-a]pyrimidin-2-yl}-3-(2-hydroxyethyl)urea] | < 0.3 nM | –
CCNc1nc2n(n1)[C@H](c1ccc(C#N)cc1)C(C#N)=C(C)N2c1cccc(C(F)(F)F)c1 [Example 56, (7R)-7-(4-Cyanophenyl)-2-(ethylamino)-5-methyl-4-[3-(trifluoromethyl)phenyl]-4,7-dihydro-[1,2,4]triazolo[1,5-a]pyrimidine-6-carbonitrile] | < 0.3 nM | –
CCOC(=O)C1=C(C)N(c2cccc(C(F)(F)F)c2)c2nccn2[C@@H]1c1ccc(C#N)cc1 [Example 90, Ethyl (5R)-5-(4-cyanophenyl)-7-methyl-8-[3-(trifluoromethyl)phenyl]-5,8-dihydroimidazo[1,2-a]-pyrimidine-6-carboxylate] | 6.5 nM | –
CC(C)(C)C(=O)Oc1ccc(S(=O)(=O)Nc2ccccc2C(=O)NCC(=O)O)cc1 [sivelestat] | – | 5600 nM

More lines, main results first:

IC50 [1] | SMILES | IC50 (pancreas elastase)
< 0.3 nM | CC1=C(C#N)C(c2ccc(C#N)cc2S(C)(=O)=O)n2nc(N3C(=O)c4ccccc4C3=O)nc2N1c1cccc(C(F)(F)F)c1 (racemic) [Example 5, (rac)-7-[4-Cyano-2-(methylsulfonyl)phenyl]-2-(1,3-dioxo-1,3-dihydro-2H-isoindol-2-yl)-5-methyl-4-[3-(trifluoromethyl)phenyl]-4,7-dihydro[1,2,4]triazolo[1,5-a]pyrimidine-6-carbonitrile] | –
< 0.3 nM | CC1=C(C#N)[C@@H](c2ccc(C#N)cc2S(C)(=O)=O)n2nc(N)nc2N1c1cccc(C(F)(F)F)c1 [Example 9, (7S)-2-Amino-7-[4-cyano-2-(methylsulfonyl)phenyl]-5-methyl-4-[3-(trifluoromethyl)phenyl]-4,7-dihydro[1,2,4]triazolo[1,5-a]pyrimidine-6-carbonitrile hydrochloride] | –
< 0.3 nM | CC1=C(C#N)[C@@H](c2ccc(C#N)cc2)n2nc(NC(=O)C3CCCCC3)nc2N1c1cccc(C(F)(F)F)c1 [Example 23, N-{(7R)-6-Cyano-7-(4-cyanophenyl)-5-methyl-4-[3-(trifluoromethyl)phenyl]-4,7-dihydro[1,2,4]triazolo[1,5-a]pyrimidin-2-yl}cyclohexanecarboxamide] | –
< 0.3 nM | CCOC(=O)Nc1nc2n(n1)C(c1ccc(C#N)cc1)C(C(=O)OCC)=C(C)N2c1cccc(C(F)(F)F)c1 (centres unmarked) [Example 50, Ethyl 7-(4-cyanophenyl)-2-[(ethoxycarbonyl)amino]-5-methyl-4-[3-(trifluoromethyl)phenyl]-4,7-dihydro[1,2,4]triazolo[1,5-a]pyrimidine-6-carboxylate] | –
